Data taken from patent US7786129B2, “Piperazine derivatives of dialkyl oxindoles” (Egis Gyogyszergyar Nyrt, priority 2004, dated 2010).
Where a name gives a salt, the structure may show the parent alone.

Compound	melting point
CCC1(CCCCN2CCN(c3ccc(Cl)cc3)CC2)C(=O)Nc2ccc(Cl)cc21 (centres unmarked) [Example 121, 5-chloro-3-{4-[4-(4-chlorophenyl)-piperazin-1-yl]-butyl}-3-ethyl-1,3-dihydro-indol-2-one]	186 to 188 °C
CC1(CCCCN2CCN(c3ccc(Cl)cc3)CC2)C(=O)Nc2c(Cl)cc(Cl)cc21 (centres unmarked) [Example 128, 5,7-dichloro-3-{4-[4-(4-chlorophenyl)-piperazin-1-yl]-butyl}-3-methyl-1,3-dihydro-2H-indol-2-one]	168 to 170 °C
CCC1(CCCCN2CCN(c3cccc(Cl)c3)CC2)C(=O)Nc2ccccc21 (centres unmarked) (as salt: HCl) (hydrate or solvate) [Example 60, 3-{4-[4-(3-Chlorophenyl)-piperazin-1-yl]-butyl}-3-ethyl-1,3-dihydro-2H-indol-2-one-H2O—HCl-isopropanol (1:1:1:1)]	109 to 111 °C
CCC1(CCCCN2CCN(c3ccc(F)cc3)CC2)C(=O)Nc2c(Cl)cc(F)cc21 (centres unmarked) [Example 119, 7-chloro-3-ethyl-5-fluoro-3-{4-[4-(4-fluorophenyl)-piperazin-1-yl]-butyl}-1,3-dihydro-2H-indol-2-one]	161 to 162 °C
CCC1(CCCCN2CCN(c3cccc(Cl)c3)CC2)C(=O)Nc2ccc(S(N)(=O)=O)cc21 (centres unmarked) (as salt: oxalate) [Example 72, 3-{4-[4-(3-Chlorophenyl)-piperazin-1-yl]-butyl}-3-ethyl-1,3-dihydro-2H-indol-2-one 5-sulfonamide monooxalate]	188 to 190 °C
CCC1(CCCCN2CCN(c3ccccn3)CC2)C(=O)Nc2ccc(C)cc21 (centres unmarked) [Example 80, 3-Ethyl-5-methyl-3-[4-(4-pyridin-2-yl-piperazin-1-yl)-butyl]-1,3-dihydro-2H-indol-2-one]	168 to 170 °C
CCC1(CCCCN2CCN(c3ccc(Cl)c(Cl)c3)CC2)C(=O)Nc2ccc(F)cc21 (centres unmarked) [Example 115, 3-{4-[4-(3,4-dichlorophenyl)-piperazin-1-yl]-butyl}-3-ethyl-5-fluoro-1,3-dihydro-2H-indol-2-one]	152 to 155 °C
CCC1(CCCCN2CCN(c3cccc(OC)c3)CC2)C(=O)Nc2ccccc21 (centres unmarked) [Example 91, 3-Ethyl-3-{4-[4-(3-methoxyphenyl)-piperazin-1-yl]-butyl}-1,3-dihydro-2H-indol-2-one]	123 to 125 °C
CCC1(CCCCN2CCN(c3ccc(F)cc3Cl)CC2)C(=O)Nc2ccccc21 (centres unmarked) [Example 126, 3-{4-[4-(2-chloro-4-fluorophenyl)-piperazin-1-yl]-butyl}-3-ethyl-1,3-dihydro-2H-indol-2-one]	125 to 126 °C
CCC1(CCCCCCN2CCN(c3cccc(Cl)c3)CC2)C(=O)Nc2ccccc21.Cl (centres unmarked)	124 to 127 °C
CCC1(CCCCN2CCN(c3ccc(Cl)c(Cl)c3)CC2)C(=O)Nc2c(Cl)cc(Cl)cc21 (centres unmarked) [Example 124, 5,7-dichloro-3-{4-[4-(3,4-dichlorophenyl)-piperazin-1-yl]-butyl}-3-ethyl-1,3-dihydro-2H-indol-2-one]	164 to 165 °C
CCC1(CCCCN2CCN(c3ccc(Cl)cc3)CC2)C(=O)Nc2ccc(C)cc21 (centres unmarked) [Example 73, 3-{4-[4-(4-Chlorophenyl)-piperazin-1-yl]-butyl}-3-ethyl-5-methyl-1,3-dihydro-2H-indol-2-one]	175 to 177 °C
CCC1(CCCCN2CCN(c3ccc(Cl)cc3)CC2)C(=O)Nc2cc(F)c(Cl)cc21 (centres unmarked) [Example 122, 5-chloro-3-{4-[4-(4-chlorophenyl)-piperazin-1-yl]-butyl}-3-ethyl-6-fluoro-1,3-dihydro-2H-indol-2-one]	194 to 197 °C
CCC1(CCCCN2CCN(c3ccc(C)c(Cl)c3)CC2)C(=O)Nc2ccccc21 (centres unmarked) [Example 99, 3-{4-[4-(3-Chloro-4-methylphenyl)-piperazin-1-yl]-butyl}-3-ethyl-1,3-dihydro-2H-indol-2-one]	103 to 106 °C
CCC1(CCCCCN2CCN(c3ccc(Cl)cc3)CC2)C(=O)Nc2c(Cl)cc(Cl)cc21 (centres unmarked) [Example 125, 5,7-Dichloro-3-{5-[4-(4-chlorophenyl)-piperazin-1-yl]-pentyl}-3-ethyl-1,3-dihydro-2H-indol-2-one]	145 to 148 °C
CCC1(CCCCN2CCN(c3cccc(Cl)c3)CC2)C(=O)Nc2ccc(F)cc21 (centres unmarked) (as salt: hydrochloride) [Example 85, 3-{4-[4-(3-Chlorophenyl)-piperazin-1-yl]-butyl}-3-ethyl-5-fluoro-1,3-dihydro-2H-indol-2-one mono-hydrochloride]	121 to 124 °C
CCC1(CCCCN2CCN(c3ccccc3)CC2)C(=O)Nc2ccccc21 (centres unmarked) (as salt: oxalate) [Example 68, 3-[4-(4-Phenylpiperazin-1-yl)-butyl]-3-ethyl-1,3-dihydro-2H-indol-2-one monooxalate]	121 to 123 °C
CCC1(CCCCN2CCN(c3ccc(Cl)c(C(F)(F)F)c3)CC2)C(=O)Nc2ccccc21 (centres unmarked) (as salt: hydrochloride) [Example 96, 3-{4-[4-(4-Chloro-3-trifluoromethyl-phenyl)-piperazin-1-yl]-butyl}-3-ethyl-1,3-dihydro-2H-indol-2-one monohydrochloride]	204 to 206 °C

Compound	melting point
CCC1(CCCCN2CCN(c3ccccn3)CC2)C(=O)Nc2ccc(F)cc21 (centres unmarked) [Example 84, 3-Ethyl-5-fluoro-3-[4-(4-pyridin-2-yl-piperazin-1-yl)-butyl]-1,3-dihydro-2H-indol-2-one]	144 to 147 °C
CCC1(CCCCN2CCN(c3ccccn3)CC2)C(=O)Nc2ccc(Cl)cc21 (centres unmarked) [Example 66, 5-Chloro-3-ethyl-3-[4-(4-pyridin-2-yl-piperazin-1-yl)-butyl]-1,3-dihydro-2H-indol-2-one]	154 to 156 °C
CCC1(CCCCN2CCN(c3cccc(Cl)c3)CC2)C(=O)Nc2cc(F)ccc21 (centres unmarked) [Example 77, 3-{4-[4-(3-Chlorophenyl)-piperazin-1-yl]-butyl}-3-ethyl-6-fluoro-1,3-dihydro-2H-indol-2-one]	116 to 117 °C
CCC1(CCCCN2CCN(c3cccc(Cl)c3)CC2)C(=O)Nc2ccc(Br)cc21 (centres unmarked) (as salt: oxalate) [Example 61, 5-Bromo-3-{4-[4-(3-chlorophenyl)-piperazin-1-yl]-butyl}-3-ethyl-1,3-dihydro-2H-indol-2-one monooxalate]	200 to 202 °C
CCC1(CCCCN2CCN(c3ccc(F)cc3)CC2)C(=O)Nc2ccc(F)cc21 (centres unmarked) [Example 111, 3-Ethyl-5-fluoro-3-{4-[4-(4-fluorophenyl)-piperazine-1-yl]-butyl}-1,3-dihydro-2H-indol-2-one]	119 to 122 °C
CCC1(CCCCN2CCN(c3cccc(Cl)c3)CC2)C(=O)Nc2ccc(Cl)cc21 (centres unmarked) [Example 67, 5-Chloro-3-{4-[4-(3-chlorophenyl)-piperazin-1-yl]-butyl}-3-ethyl-1,3-dihydro-2H-indol-2-one]	139 to 142 °C
CCC1(CCCN2CCN(c3cccc(Cl)c3)CC2)C(=O)Nc2ccccc21 (centres unmarked) [Example 108, 3-{3-[4-(3-Chlorophenyl)-piperazin-1-yl]-propyl}-3-ethyl-1,3-dihydro-2H-indol-2-one]	119 to 120 °C
CCC1(CCCCCN2CCN(c3ccccn3)CC2)C(=O)Nc2ccccc21 (centres unmarked) [Example 93, 3-Ethyl-3-[5-(4-pyridin-2-yl-piperazin-1-yl)-pentyl]-1,3-dihydro-2H-indol-2-one]	127 to 128 °C
CCC1(CCCCCN2CCN(c3ccc(Cl)cc3)CC2)C(=O)Nc2ccccc21 (centres unmarked) [Example 123, 3-{5-[4-(4-chlorophenyl)-piperazin-1-yl]-pentyl}-3-ethyl-1,3-dihydro-2H-indol-2-one]	142 to 143 °C
CCC1(CCCCN2CCN(c3cccc4c3OCCO4)CC2)C(=O)Nc2cc(F)ccc21 (centres unmarked) [Example 83, 3-{4-[4-(2,3-Dihydrobenzo[1,4]dioxin-5-yl)-piperazin-1-yl]-butyl}-3-ethyl-6-fluoro-1,3-dihydro-2H-indol-2-one]	146 to 147 °C
CCC1(CCCCN2CCN(c3ccc(OC)cc3)CC2)C(=O)Nc2ccccc21 (centres unmarked) [Example 74, 3-Ethyl-3-{4-[4-(4-methoxyphenyl)-piperazin-1-yl]-butyl}-1,3-dihydro-2H-indol-2-one]	109 to 110 °C
CCC1(CCCCN2CCN(c3ccc(F)c(Cl)c3)CC2)C(=O)Nc2ccccc21 (centres unmarked) [Example 100, 3-{4-[4-(3-Chloro-4-fluorophenyl)-piperazin-1-yl]-butyl}-3-ethyl-1,3-dihydro-2H-indol-2-one]	121 to 124 °C
CCC1(CCCCN2CCN(c3cc(Cl)cc(Cl)c3)CC2)C(=O)Nc2ccc(F)cc21 (centres unmarked) [Example 114, 3-{4-[4-(3,5-dichlorophenyl)-piperazine-1-yl]-butyl}-3-ethyl-5-fluoro-1,3-dihydro-2H-indol-2-one]	122 to 124 °C
CCC1(CCCCN2CCN(c3cccc(Cl)c3)CC2)C(=O)Nc2cc(F)c(Cl)cc21 (centres unmarked) (as salt: hydrochloride) [Example 89, 5-Chloro-3-{4-[4-(3-chlorophenyl)-piperazin-1-yl]-butyl}-3-ethyl-6-fluoro-1,3-dihydro-2H-indol-2-one monohydrochloride]	237 to 239 °C
CCC1(CCCN2CCN(c3ccccn3)CC2)C(=O)Nc2ccccc21 (centres unmarked) [Example 58, 3-Ethyl-3-[3-(4-pyridin-2-yl-piperazin-1-yl)-propyl]-1,3-dihydro-2H-indol-2-one]	122 to 124 °C
CCC1(CCCCN2CCN(c3ccccc3Cl)CC2)C(=O)Nc2ccccc21 (centres unmarked) [Example 81, 3-{4-[4-(2-Chlorophenyl)-piperazin-1-yl]-butyl}-3-ethyl-1,3-dihydro-2H-indol-2-one]	145 to 148 °C
CCC1(CCCCN2CCN(c3ccc(F)cc3)CC2)C(=O)Nc2ccc(C)cc21 (centres unmarked) [Example 113, 3-Ethyl-3-{4-[4-(4-fluorophenyl)-piperazin-1-yl]-butyl}-5-methyl-1,3-dihydro-2H-indol-2-one]	146 to 149 °C
